Reference: patent publication US10143748B2, “B-cell reduction using CD37-specific and CD20-specific binding molecules” (Emergent Product Development Seattle, LLC, priority 2005, dated 2018)
“Also recorded” adds a separate entry of the source.

Assays:
[1] = test system: Rituximab-resistant cells (Raji 4RH and RL 4RH); test: direct cytotoxicity in rituximab-resistant cells, annexin/PI; format: cell-based; conditions: TRU-016 5 μg/mL, rituximab 10 μg/mL, five-fold excess goat anti-human IgG, 24 hours
Protocol: Direct cytoxicity was measured by annexin/PI staining and cell viability (percent) was calculated relative to control cells (cells treated with herceptin).

Ramos B cells = test: CDC assay, Ramos B cells with human serum complement, propidium iodide; format: cell-based; conditions: Ramos B cells, human serum
Protocol: (§1) The cells were incubated 60 minutes at 37° C. […] Samples were incubated 15 minutes at room temperature in the dark prior to analysis by flow cytometry using a FACsCalibur and CellQuest software (Becton Dickinson).
as §1

[2] = test system: CD19+ primary CLL B cells; test: tyrosine phosphorylation, 2D gel anti-phosphotyrosine immunoblot; format: cell-based, human; conditions: 5 ug/ml, 10 minutes, then crosslinker 25 ug/ml 5 minutes, FIG. 29
Protocol: Freshly isolated CD19+ cells (−50−100×106) from CLL patients were suspended at a concentration of 5×10^6/ml PBS. Cells were then incubated for 10 minutes at 37° C., 5% CO2, with control, trastuzumab (herceptin), or TRU-016 at a final concentration of 5 ug/ml. Cells were spun down, supernatant was removed, and cells were resuspended in fresh PBS of initial volume. Goat anti-human Fc fragment specific crosslinker (25 ug/ml) was added and cells were incubated for an additional 5 minutes. Cells were again spun down, supernatant was removed, and cells were lysed in 1 ml of RIPA lysis buffer with protease and phosphatase inhibitors (10 mM Tris, ph7.4, 150 mM NaCl,1% Triton X-100, 1% deoxycholic acid, 0.1% SDS and 5 mM EDTA all final concentrations. Sigma protease inhibitor cocktail cat#P-8340; Sigma phosphatase inhibitor cocktail: serine/threonine phosphatase inhibitor cocktail pat#P-2850; and tyrosine phosphatase inhibitor cat#P-5726;PMSF (100 mM) were all used. The inhibitors were added to the lysis buffer immediately prior to use at a 1:100 dilution. Protein concentration in the lysates was quantified by the bicin choninic acid (BCA) method (Pierce, Rockford, Ill.). The control arid treated protein samples (SOug total protein) were separated by two-dimensional gel electrophoresis (pH Range 3-10) (1st Dimension) and 10% SDS-PAGE (2nd Dimension). […]

Daudi tumors = test: Daudi tumor xenograft in nude mice; format: in vivo, mouse
Protocol: Ramos and Daudi tumor cells were separately grown and (5×10^6) cells were injected subcutaneously in the right flank of mice to initiate the formation of mouse tumor xenografts. After tumor development, mice were sorted into groups based on tumor size/volume (day 0). […] Tumor volume was blindly measured three times weekly with calipers until completion of the experiment (sacrifice or regression).

Ramos cells = test: Annexin V/PI apoptosis analysis, Ramos; format: cell-based, human; conditions: 24 hours, TRU-016 10 μg/mL (unfractionated)
Protocol: Experiments examining the effect of B cell targeted SMIPS on B cell line apoptosis were performed. Each SMIP was tested individually and then in combination. Samples were analyzed at both 24 and 48 hours after initiation of incubation reactions. […] In addition, 20 μg/mL goat anti-human IgG was added to reactions in order to cross link reagents on the cell surface. Cells were then stained with Annexin V-FITC and propidium iodide using the BD Pharmigen Apoptosis Detection Kit I (#556547), and processed according to kit instructions. Briefly, cells were washed twice with cold PBS and resuspended in “binding buffer” at 1×10^6 cells/mL. One hundred microliters of the cells in binding buffer were then stained with 5 μl of Annexin V-FITC and 5 μl of propidium iodide. The cells were gently vortexed and incubated in the dark at room temperature for 15 minutes. Four hundred microliters of binding buffer was then added to each sample. They were then read and analyzed on a FACsCalibur (Becton Dickinson) instrument using Cell Quest software (Becton Dickinson).
Similar data were obtained whether Ramos or BJAB cells were used as the binding targets in these assays.

[3] = established Daudi tumors, 100 μg

G28-1 scFv VH11S(SSC—P)H WCH2 WCH3 [TRU-016]
cell toxicity (cell viability relative to herceptin-treated cells) [1]: greater cell toxicity than rituximab
CDC activity with human complement, single reagent (Ramos B cells): fails to mediate CDC unless aggregates are present
tyrosine phosphorylation [2]: induced tyrosine phosphorylation
survival time (Daudi tumors; Daudi tumor xenograft, FIGS. 25 and 26): more effective than rituximab in maintaining survival; also recorded: significantly enhanced survival time compared to the control group; also recorded: statistically significant increase in median survival time
Median Survival Time (Daudi tumors; [3]): 24 days
Percentage of Tumor Free Mice at Day 90 (Daudi tumors; [3]): 25%
% of annexin V positive-PI negative cells (Ramos cells; 8.5% before): 19.7%
% of annexin V-PI double positive cells (Ramos cells; 11.3% before): 32.8%
